# Experimental data: patent US8293790B2, “Pharmaceutical compositions comprising DGLA and benzoyl peroxide and methods of use thereof” (Dignity Sciences Limited, priority 2011, dated 2012)
# Assays:
# P. acnes [1] = test: Agar dilution method: growth of P. acnes and MIC, fatty acid compounds in combination with other compounds; format: cell-based, Propionibacterium acnes
# Experimental: Several compounds including fatty acids such as DGLA, 15-OHEPA, and 15-HETrE were tested to determine their capacity to inhibit the growth of P. acnes. In an exemplary method, an agar dilution method was used to determine the minimum inhibitory concentration (MIC) of each tested compound. Briefly, the agar dilution method involved preparing a series of concentrations of each compound (e.g., nicotinamide, benzoyl peroxide, adapalene, metronidazole, DGLA, 15-OHEPA, and 15-HETrE) in a Reinforced Clostridial Agar (RCA) media that facilitates growth of P. acnes under anaerobic conditions. An inoculum of P. acnes was prepared by incubation of P. acnes for approximately seven days at 35-37° C. to achieve a ≧1.0 OD600 inoculum of P. acnes in RCM broth. A portion of this inoculum was then added to the surface of each plate as a 10 μL spot and incubated at 35-37° C. for 72 hours or more. Growth of P. acnes was then observed and compared to control plates in which no compound has been added, and positive inhibition plates prepared with erythromycin. […] The growth of P. acnes in the presence of nicotinamide, benzoyl peroxide, adapalene, metronidazole, DGLA, 15-OHEPA, and 15-HETrE was determined with varying concentrations of the compound (see, Table 2). Next, the MIC was determined as the concentration at which a marked reduction (+) occurs in the appearance of growth on the test plate (as per Clinical and Laboratory Standards Institute M11-A7). The compounds tested singly in Example 1 were tested in combination with one another to determine the capacity of the combination to inhibit the growth of P. acnes. In an exemplary method, the MIC was determined for each of the combination as described in Example 1. Briefly, test combinations included DGLA with nicotinamide, benzoyl peroxide, adapalene, or metronidazole; 15-HETrE with nicotinamide, benzoyl peroxide, adapalene, or metronidazole; and 15-OHEPA with nicotinamide, benzoyl peroxide, adapalene, or metronidazole. The tables below show the growth of P. acnes in the presence of 0.4 or 1.0 mg/mL DGLA with varying concentrations of nicotinamide, benzoyl peroxide, adapalene, or metronidazole (Table 3); the growth of P. acnes in the presence of 0.01 or 0.05 mg/mL 15-HETrE with varying concentrations of nicotinamide, benzoyl peroxide, adapalene, or metronidazole (Table 5); and the growth of P. acnes in the presence of 0.5 or 0.1 mg/mL 15-OHEPA with varying concentrations of nicotinamide, benzoyl peroxide, adapalene, or metronidazole (Table 7).
# P. acnes [2] = test: Agar dilution method: growth of P. acnes and MIC, compounds tested singly; format: cell-based, Propionibacterium acnes; parameters: key to Growth Index (+++, ++, +, −) Plate 1 / Growth Index (+++, ++, +, −) Plate 2 / Growth Index (+++, ++, +, −) Plate 3 / Growth Index (+++, ++, +, −) Avg: +++: confluent growth (comparable to control); ++: less confluent growth; +: marked reduction in growth to multiple tiny, single colonies; −: no growth present; settings: for MIC: Cutibacterium acnes, compound alone, MIC = concentration with marked reduction (+) of growth, read-out: MIC (mg/mL) as per P-11-0007 or P-11-0008 Addendum A
# Experimental: Several compounds including fatty acids such as DGLA, 15-OHEPA, and 15-HETrE were tested to determine their capacity to inhibit the growth of P. acnes. In an exemplary method, an agar dilution method was used to determine the minimum inhibitory concentration (MIC) of each tested compound. Briefly, the agar dilution method involved preparing a series of concentrations of each compound (e.g., nicotinamide, benzoyl peroxide, adapalene, metronidazole, DGLA, 15-OHEPA, and 15-HETrE) in a Reinforced Clostridial Agar (RCA) media that facilitates growth of P. acnes under anaerobic conditions. An inoculum of P. acnes was prepared by incubation of P. acnes for approximately seven days at 35-37° C. to achieve a ≧1.0 OD600 inoculum of P. acnes in RCM broth. A portion of this inoculum was then added to the surface of each plate as a 10 μL spot and incubated at 35-37° C. for 72 hours or more. Growth of P. acnes was then observed and compared to control plates in which no compound has been added, and positive inhibition plates prepared with erythromycin. […] The growth of P. acnes in the presence of nicotinamide, benzoyl peroxide, adapalene, metronidazole, DGLA, 15-OHEPA, and 15-HETrE was determined with varying concentrations of the compound (see, Table 2). Next, the MIC was determined as the concentration at which a marked reduction (+) occurs in the appearance of growth on the test plate (as per Clinical and Laboratory Standards Institute M11-A7).
# [3] = compound at 0.010 mg/mL in agar
# [4] = compound at 0.025 mg/mL in agar
# [5] = compound at 0.050 mg/mL in agar
# [6] = compound at 0.075 mg/mL in agar
structure (smiles),measurement,setting,value
NC(=O)c1cccnc1 [Nicotinamide],MIC (mg/mL) with 0.05 mg/mL 15-HETrE spike,"P. acnes [1]; 0.05 mg/mL 15-HETrE spike, itself an inhibitory concentration",<1 mg/mL
same,MIC (mg/mL) with 0.1 mg/mL 15-OHEPA spike,"P. acnes [1]; 0.1 mg/mL 15-OHEPA spike, itself an inhibitory concentration",<1 mg/mL
same,growth of P. acnes in combination with 15-HETrE compared with 15-HETrE alone,P. acnes [1]; in combination with 15-HETrE,did not reduce the growth of P. Acnes below that of 15-HETrE used alone
same,growth of P. acnes in combination with 15-OHEPA compared with 15-OHEPA alone,P. acnes [1]; in combination with 15-OHEPA,did not reduce the growth of P. Acnes below that of 15 OHEPA used alone
same,growth of P. acnes in combination with DGLA compared with DGLA alone,P. acnes [1]; in combination with DGLA,did not reduce the growth of P. Acnes below that of DGLA used alone
same,MIC,P. acnes [2],10000 to 15000 µg/mL
same,"Growth Index (+++, ++, +, −) Avg",P. acnes [2]; compound at 1 mg/mL in agar,+++
same,"Growth Index (+++, ++, +, −) Plate 1",P. acnes [2]; compound at 1 mg/mL in agar,+++
same,"Growth Index (+++, ++, +, −) Plate 2",P. acnes [2]; compound at 1 mg/mL in agar,+++
same,"Growth Index (+++, ++, +, −) Plate 3",P. acnes [2]; compound at 1 mg/mL in agar,+++
same,"Growth Index (+++, ++, +, −) Avg",P. acnes [2]; compound at 5 mg/mL in agar,+++
same,"Growth Index (+++, ++, +, −) Plate 1",P. acnes [2]; compound at 5 mg/mL in agar,+++
same,"Growth Index (+++, ++, +, −) Plate 2",P. acnes [2]; compound at 5 mg/mL in agar,+++
same,"Growth Index (+++, ++, +, −) Plate 3",P. acnes [2]; compound at 5 mg/mL in agar,+++
same,"Growth Index (+++, ++, +, −) Avg",P. acnes [2]; compound at 10 mg/mL in agar,++
same,"Growth Index (+++, ++, +, −) Plate 1",P. acnes [2]; compound at 10 mg/mL in agar,++
same,"Growth Index (+++, ++, +, −) Plate 2",P. acnes [2]; compound at 10 mg/mL in agar,++
same,"Growth Index (+++, ++, +, −) Plate 3",P. acnes [2]; compound at 10 mg/mL in agar,++
same,"Growth Index (+++, ++, +, −) Avg",P. acnes [2]; compound at 15 mg/mL in agar,+
same,"Growth Index (+++, ++, +, −) Plate 1",P. acnes [2]; compound at 15 mg/mL in agar,−
same,"Growth Index (+++, ++, +, −) Plate 2",P. acnes [2]; compound at 15 mg/mL in agar,+
same,"Growth Index (+++, ++, +, −) Plate 3",P. acnes [2]; compound at 15 mg/mL in agar,+
"CCC=CCC(O)C=CC=CCC=CCC=CCCCC(=O)O (centres unmarked) [15-OHEPA, 15-Hydroxy-eicosa-5,8,11,13,17-pentaenoic acid]",effect on growth of P. acnes on its own,P. acnes [2]; 0.05 mg/mL,no effect on its own
same,MIC,P. acnes [2],50 to 75 µg/mL
same,"Growth Index (+++, ++, +, −) Avg",P. acnes [2]; [3],+++
same,"Growth Index (+++, ++, +, −) Plate 1",P. acnes [2]; [3],+++
same,"Growth Index (+++, ++, +, −) Plate 2",P. acnes [2]; [3],+++
same,"Growth Index (+++, ++, +, −) Plate 3",P. acnes [2]; [3],+++
same,"Growth Index (+++, ++, +, −) Avg",P. acnes [2]; [4],+++
same,"Growth Index (+++, ++, +, −) Plate 1",P. acnes [2]; [4],+++
same,"Growth Index (+++, ++, +, −) Plate 2",P. acnes [2]; [4],+++
same,"Growth Index (+++, ++, +, −) Plate 3",P. acnes [2]; [4],+++
same,"Growth Index (+++, ++, +, −) Avg",P. acnes [2]; [5],+++
same,"Growth Index (+++, ++, +, −) Plate 1",P. acnes [2]; [5],+++
same,"Growth Index (+++, ++, +, −) Plate 2",P. acnes [2]; [5],+++
same,"Growth Index (+++, ++, +, −) Plate 3",P. acnes [2]; [5],+++
same,"Growth Index (+++, ++, +, −) Avg",P. acnes [2]; [6],+
same,"Growth Index (+++, ++, +, −) Plate 1",P. acnes [2]; [6],+
same,"Growth Index (+++, ++, +, −) Plate 2",P. acnes [2]; [6],+
same,"Growth Index (+++, ++, +, −) Plate 3",P. acnes [2]; [6],+
CC[C@H]1OC(=O)[C@H](C)[C@@H](O[C@H]2C[C@@](C)(OC)[C@@H](O)[C@H](C)O2)[C@H](C)[C@@H](O[C@@H]2O[C@H](C)C[C@H](N(C)C)[C@H]2O)[C@](C)(O)C[C@@H](C)C(=O)[C@H](C)[C@@H](O)[C@]1(C)O [Erythromycin],MIC,P. acnes [2],0.01 to 0.05 µg/mL
